Some test systems named below: 786-0; CAKI-1; HCC 2998; HOP-62; HOP-92; MDA-MB-435; MDA-N; NCI-H23; NCI-H460; OVCAR-4; OVCAR-5; SK-MEL-5; SNB-75; SR; T47D; U-251; UACC-257; UACC-62; UO-31.
Assay in all cases: inhibition of tumour cell growth, NCI panel, 48 h

The structures appear in SMILES notation.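 Exposure lasted 48 hours, with cells grown in 96-well plates and compounds tested at five concentrations. Here, GI50 denotes the concentration required for 50% inhibition of growth.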 Calls of active or inactive are those of the source. Cut-off read from the data, not from the text of the source: active = GI50 up to about 1.1 µM and inactive = higher.

For the compound `COc1cc(C2c3cc4c(cc3OC(N3CCCC3)C2C)OCO4)cc(OC)c1O` (centres undefined), the GI50 is 13.9 µM (inactive) in the experiment with 786-0; 16.1 µM (inactive) with CAKI-1; 28.2 µM (inactive) in the experiment on HCC 2998; 11.6 µM (inactive) in the experiment with HOP-62; 19.4 µM (inactive) in the experiment with HOP-92; 2.48 µM (inactive) in the experiment with MDA-MB-435. In addition, the GI50 in the experiment on MDA-N was 2.31 µM (inactive); with NCI-H23, 23.4 µM (inactive); in the experiment on NCI-H460 it was 16.3 µM (inactive); in the experiment on OVCAR-4 it was 59.6 µM (inactive); in the experiment with OVCAR-5 it was 61.5 µM (inactive); with SK-MEL-5 it was 4.9 µM (inactive). Moreover, the GI50 in the experiment with SNB-75 is 4.26 µM (inactive); in the experiment on SR, 5.89 µM (inactive); in the experiment on T47D, 31.8 µM (inactive); in the experiment on U-251, 11.6 µM (inactive); with UACC-257, 35.6 µM (inactive); with UACC-62, 5.16 µM (inactive). The GI50 with UO-31 was 44.3 µM (inactive).
With `Clc1c2ncccc2cc2nn[nH]c12`, the GI50 is > 100 µM (inactive) in the experiment on 786-0; > 100 µM (inactive) in the experiment on CAKI-1; > 100 µM (inactive) in the experiment on HCC 2998; > 100 µM (inactive) with HOP-62; 54 µM (inactive) in the experiment on HOP-92; > 100 µM (inactive) in the experiment with MDA-MB-435. Also, the GI50 was > 100 µM (inactive) in the experiment on MDA-N; > 100 µM (inactive) in the experiment with NCI-H23; 49.2 µM (inactive) in the experiment with NCI-H460; > 100 µM (inactive) in the experiment on OVCAR-4; 74.5 µM (inactive) in the experiment with OVCAR-5; > 100 µM (inactive) with SK-MEL-5. Also, the GI50 in the experiment on SNB-75 was 28.5 µM (inactive); in the experiment on SR, 23.3 µM (inactive); with T47D, > 100 µM (inactive); in the experiment with U-251, > 100 µM (inactive); with UACC-257, > 100 µM (inactive); with UACC-62, > 100 µM (inactive). Further, the GI50 with UO-31 was 82.6 µM (inactive).
With `CCN(CCCl)c1cc(CN(C)C)cc(NC(=O)c2ccc(C(=O)Nc3cccc(CN(C)C)c3)cc2)c1`, the GI50 in the experiment with 786-0 was 0.383 µM (active); in the experiment with CAKI-1, 32.6 µM (inactive); in the experiment on HCC 2998, 1.26 µM (inactive); in the experiment on HOP-62 it was 0.326 µM (active); with HOP-92 it was 0.512 µM (active); in the experiment with MDA-MB-435, 0.238 µM (active). The GI50 is 0.29 µM (active) with MDA-N; 1.54 µM (inactive) in the experiment with NCI-H23; 0.716 µM (active) in the experiment on NCI-H460; 0.607 µM (active) in the experiment with OVCAR-4; 10.6 µM (inactive) in the experiment with OVCAR-5; 0.213 µM (active) in the experiment with SK-MEL-5. Further, the GI50 with SNB-75 is 0.695 µM (active); in the experiment on SR it was 0.275 µM (active); with T47D, 1.91 µM (inactive); with U-251, 0.225 µM (active); with UACC-257, 1.83 µM (inactive); with UACC-62, 1.27 µM (inactive). Moreover, in the experiment with UO-31, the GI50 is 27.7 µM (inactive).
As for `CC1(C)Cc2nc3c(cc2C(=O)C1/C=N/C(C#N)=C(\N)C#N)C(=O)C(/C=N/C(C#N)=C(\N)C#N)C(C)(C)C3` (centres undefined), the GI50 with 786-0 was 1.84 µM (inactive); in the experiment with CAKI-1 it was 1.65 µM (inactive); in the experiment on HCC 2998 it was 4.52 µM (inactive); in the experiment with HOP-62 it was 2.33 µM (inactive); in the experiment with HOP-92 it was 1.7 µM (inactive); with MDA-MB-435, 2.08 µM (inactive). Besides, the GI50 was 2.41 µM (inactive) with MDA-N; 2.71 µM (inactive) in the experiment with NCI-H23; 2.61 µM (inactive) in the experiment with NCI-H460; 4.04 µM (inactive) with OVCAR-4; 2.34 µM (inactive) in the experiment on OVCAR-5; 2 µM (inactive) in the experiment with SK-MEL-5. Besides, the GI50 with SNB-75 was 1.66 µM (inactive); with SR it was 3.08 µM (inactive); in the experiment with T47D it was 1.32 µM (inactive); in the experiment on U-251, 2.04 µM (inactive); in the experiment on UACC-257, 2.51 µM (inactive); in the experiment with UACC-62, 1.83 µM (inactive). Moreover, in the experiment on UO-31, the GI50 was 1.84 µM (inactive).
As to `O=C1CSC(c2ccccc2)N1c1nc2cc3sc(N4C(=O)CSC4c4ccccc4)nc3cc2s1` (centres undefined), the GI50 in the experiment with 786-0 is > 100 µM (inactive); with CAKI-1, 39.5 µM (inactive); with HCC 2998, > 93.3 µM (inactive); with HOP-62, > 100 µM (inactive); with HOP-92, > 100 µM (inactive); in the experiment with MDA-MB-435, 55.6 µM (inactive). The GI50 in the experiment on MDA-N is > 64.4 µM (inactive); in the experiment on NCI-H23, 15 µM (inactive); in the experiment on NCI-H460, 3.1 µM (inactive); with OVCAR-4 it was 60.1 µM (inactive); in the experiment on OVCAR-5, 60 µM (inactive); with SK-MEL-5, 32.3 µM (inactive). Moreover, the GI50 in the experiment with SNB-75 was 38 µM (inactive); with SR it was 16.5 µM (inactive); in the experiment on T47D, 61 µM (inactive); in the experiment with U-251 it was 38.2 µM (inactive); with UACC-257, 85.1 µM (inactive); in the experiment with UACC-62 it was 56.8 µM (inactive). The GI50 in the experiment on UO-31 was 40.6 µM (inactive).
In the case of `CC1(C)CN=C(c2ccc3ccccc3c2O)N1`, the GI50 in the experiment on 786-0, in the experiment with CAKI-1, in the experiment on HCC 2998, with HOP-62, with HOP-92 and with MDA-MB-435 was > 100 µM (inactive) each time. In addition, the GI50 in the experiment on MDA-N, in the experiment with NCI-H23, with NCI-H460, with OVCAR-4, with OVCAR-5 and with SK-MEL-5 was > 100 µM (inactive) in each case. In addition, the GI50 in the experiment on SNB-75, in the experiment with SR, in the experiment on T47D, with U-251, with UACC-257 and in the experiment on UACC-62 was > 100 µM (inactive) throughout. Also, the GI50 in the experiment on UO-31 is > 100 µM (inactive).
Regarding `O=C(O)CCc1nc2c(n1Cc1ccccc1)C(=O)c1ccccc1C2=O`, the GI50 in the experiment with 786-0 was > 100 µM (inactive); with CAKI-1, > 100 µM (inactive); with HCC 2998, > 100 µM (inactive); in the experiment on HOP-62, > 100 µM (inactive); with HOP-92 it was 5.45 µM (inactive); with MDA-MB-435, 19.2 µM (inactive). Also, the GI50 in the experiment with MDA-N is 21.5 µM (inactive); with NCI-H23 it was 30.3 µM (inactive); with NCI-H460 it was 37.9 µM (inactive); in the experiment with OVCAR-4, > 100 µM (inactive); with OVCAR-5, > 100 µM (inactive); in the experiment on SK-MEL-5 it was 21.2 µM (inactive). The GI50 with SNB-75 is > 100 µM (inactive); with SR, 51.4 µM (inactive); in the experiment on T47D, 52 µM (inactive); with U-251, 56 µM (inactive); with UACC-257 it was 33.7 µM (inactive); in the experiment with UACC-62, 38 µM (inactive). In the experiment with UO-31, the GI50 was 30.8 µM (inactive).
Take `Cc1ccc(Nc2cc(=O)[nH]c(=O)[nH]2)cc1CS`: the GI50 in the experiment with 786-0, in the experiment on CAKI-1, with HCC 2998, in the experiment on HOP-62, in the experiment with HOP-92 and with MDA-MB-435 was > 100 µM (inactive) each time. In addition, the GI50 in the experiment on MDA-N, in the experiment with NCI-H23, with NCI-H460, in the experiment with OVCAR-4, in the experiment on OVCAR-5 and in the experiment on SK-MEL-5 was > 100 µM (inactive) each time. Further, the GI50 with SNB-75, in the experiment on SR, in the experiment on T47D, with U-251, in the experiment on UACC-257 and with UACC-62 was > 100 µM (inactive) in each case. Further, the GI50 in the experiment with UO-31 is > 100 µM (inactive).
In the case of `COc1ccc2c(c1)C(=O)C(=O)c1cc(O)c(OC)c(OC)c1-2`, the GI50 is 0.836 µM (active) in the experiment on 786-0; 0.918 µM (active) in the experiment with CAKI-1; 4.55 µM (inactive) in the experiment on HCC 2998; 0.845 µM (active) in the experiment with HOP-62; 0.875 µM (active) in the experiment with HOP-92; 0.115 µM (active) in the experiment on MDA-MB-435. Besides, the GI50 in the experiment with MDA-N was 0.697 µM (active); with NCI-H23, 0.889 µM (active); in the experiment with NCI-H460, 3.02 µM (inactive); with OVCAR-4, 0.719 µM (active); with OVCAR-5 it was 1.12 µM (inactive); with SK-MEL-5 it was 0.826 µM (active). Further, the GI50 is 1.18 µM (inactive) in the experiment on SNB-75; 0.818 µM (active) in the experiment with SR; 1.13 µM (inactive) in the experiment on T47D; 0.863 µM (active) in the experiment on U-251; 0.91 µM (active) with UACC-257; 0.849 µM (active) in the experiment on UACC-62. The GI50 in the experiment on UO-31 was 0.925 µM (active).
For `NC(Cc1c[nH]c(I)n1)C(=O)O` (centres undefined), the GI50 is > 100 µM (inactive) with 786-0; 29.3 µM (inactive) in the experiment with CAKI-1; 34.9 µM (inactive) with HCC 2998; > 100 µM (inactive) in the experiment on HOP-62; 25.6 µM (inactive) with HOP-92; > 100 µM (inactive) with MDA-MB-435. Also, the GI50 is > 100 µM (inactive) in the experiment with MDA-N; 81.3 µM (inactive) with NCI-H23; > 100 µM (inactive) in the experiment on NCI-H460; 49.9 µM (inactive) in the experiment with OVCAR-4; > 100 µM (inactive) in the experiment with OVCAR-5; 82.2 µM (inactive) in the experiment with SK-MEL-5. For the same compound, the GI50 in the experiment with SNB-75 is 25.6 µM (inactive); in the experiment with SR it was 34.4 µM (inactive); with T47D it was 90.6 µM (inactive); in the experiment on U-251 it was > 100 µM (inactive); in the experiment on UACC-257, 41.1 µM (inactive); in the experiment on UACC-62, > 100 µM (inactive). Further, in the experiment with UO-31, the GI50 was > 100 µM (inactive).
Regarding `N=C(N)N/N=C/c1c(-c2ccc(Cl)cc2)nc2n1CCS2`, the GI50 was 4.31 µM (inactive) in the experiment with 786-0; 14.8 µM (inactive) with CAKI-1; 3.04 µM (inactive) in the experiment with HCC 2998; 12.6 µM (inactive) in the experiment on HOP-62; 10.7 µM (inactive) with HOP-92; 11.9 µM (inactive) with MDA-MB-435. The GI50 in the experiment with MDA-N was 11 µM (inactive); in the experiment on NCI-H23, > 10 µM (inactive); with NCI-H460, 13.1 µM (inactive); with OVCAR-4, 15.3 µM (inactive); with OVCAR-5 it was 15.1 µM (inactive); in the experiment on SK-MEL-5 it was 3.32 µM (inactive). For the same compound, the GI50 in the experiment with SNB-75 was 13.3 µM (inactive); with SR it was 7.16 µM (inactive); in the experiment on T47D, 13.6 µM (inactive); with U-251 it was 12.9 µM (inactive); in the experiment on UACC-257, 14.3 µM (inactive); with UACC-62, 11.9 µM (inactive). The GI50 in the experiment with UO-31 was 12.7 µM (inactive).

The values are drawn from ChEMBL document CHEMBL1201862, “PubChem BioAssay data set” (2004).
